Reference: ChEMBL document CHEMBL6134921, “Novel Tetrahydrobenzo[b]pyrazolo[3,4-e][1,4]diazepine Compounds as Oxytocin Receptor Agonists for Treating Autism Spectrum Disorders” (ACS Med Chem Lett, 2025)

How the values were obtained:
Oxytocin receptor = biological target: T1, Oxytocin receptor (Homo sapiens, UniProt P30559); assay: Agonist activity at oxytocin receptor (unknown origin) expressed in CHO cells by IP-1 accumulation assay; assay type: functional, cell-based
T1 sequence (P30559 whole entry): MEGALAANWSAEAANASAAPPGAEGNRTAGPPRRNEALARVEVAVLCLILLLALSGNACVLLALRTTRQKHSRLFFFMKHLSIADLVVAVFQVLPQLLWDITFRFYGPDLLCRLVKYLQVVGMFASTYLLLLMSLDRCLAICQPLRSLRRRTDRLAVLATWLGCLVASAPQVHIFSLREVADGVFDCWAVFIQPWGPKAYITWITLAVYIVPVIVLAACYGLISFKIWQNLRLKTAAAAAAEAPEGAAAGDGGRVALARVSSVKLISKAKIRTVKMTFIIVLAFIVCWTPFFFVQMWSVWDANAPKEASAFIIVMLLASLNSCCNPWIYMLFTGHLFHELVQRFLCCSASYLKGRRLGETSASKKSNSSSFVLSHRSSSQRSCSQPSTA

[1] = Selectivity ratio, IC50 for antagonist activity at V1A receptor (unknown origin) to EC50 for agonist activity at oxytocin receptor (unknown origin) expressed in CHO cells; assay type: cell-based
Vasopressin V1a receptor = Vasopressin V1a receptor (Homo sapiens, UniProt P37288); assay: Antagonist activity at V1A receptor (unknown origin) by calcium signal assay; assay type: functional
Chain of Vasopressin V1a receptor (P37288 whole entry): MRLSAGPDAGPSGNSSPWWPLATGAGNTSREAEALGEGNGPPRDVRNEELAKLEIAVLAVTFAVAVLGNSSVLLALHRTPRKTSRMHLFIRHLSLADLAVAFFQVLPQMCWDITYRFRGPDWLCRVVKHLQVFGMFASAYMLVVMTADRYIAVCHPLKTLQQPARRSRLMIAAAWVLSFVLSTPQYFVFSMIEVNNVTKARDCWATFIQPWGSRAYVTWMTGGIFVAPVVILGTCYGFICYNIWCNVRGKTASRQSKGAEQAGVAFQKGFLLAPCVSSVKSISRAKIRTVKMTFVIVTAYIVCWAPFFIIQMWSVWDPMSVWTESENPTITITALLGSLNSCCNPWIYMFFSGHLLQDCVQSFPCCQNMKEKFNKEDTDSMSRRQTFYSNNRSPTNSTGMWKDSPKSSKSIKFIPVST

| SMILES | EC50 (Oxytocin receptor) [nM] | IC50 (Vasopressin V1a receptor) [nM] | Ratio IC50/EC50 [1] |
| --- | --- | --- | --- |
| Cc1cc(C(=O)N2Cc3cnn(C)c3Nc3ccccc32)ccc1CNC(=O)N1C[C@@H](n2cc(CO)nn2)C[C@H]1C(=S)N(C)C | 0.14 | 700 | 5000 |
| Cc1cc(C(=O)N2Cc3cnn(C)c3Nc3ccccc32)ccc1CNC(=O)N1C[C@H](n2cc(CO)nn2)C[C@H]1C(=S)N(C)C | 0.15 | 966 | 6450 |
| Cc1cc(C(=O)N2Cc3cnn(C)c3Nc3ccccc32)ccc1CNC(=O)N1C[C@H](n2cc(CF)nn2)C[C@H]1C(=S)N(C)C | 0.31 |  |  |

The next lines start with results.

| EC50 (Oxytocin receptor) [nM] | IC50 (Vasopressin V1a receptor) [nM] | SMILES | Ratio IC50/EC50 [1] |
| --- | --- | --- | --- |
| 1.95 | > 10000 | Cc1cc(C(=O)N2Cc3cnn(C)c3Nc3ccccc32)ccc1CNC(=O)N1C[C@H](n2cc(CCc3nnn[nH]3)nn2)C[C@H]1C(=S)N(C)C | > 5000 |
| 0.26 | 393 | Cc1cc(C(=O)N2Cc3cnn(C)c3Nc3ccccc32)ccc1CNC(=O)N1C[C@H](n2cc(CC3NC(=O)NC3=O)nn2)C[C@H]1C(=S)N(C)C (some centres undefined) | 1510 |
| 0.55 |  | Cc1cc(C(=O)N2Cc3cnn(C)c3Nc3ccccc32)ccc1CNC(=O)N1C[C@H](n2cc(COCCF)nn2)C[C@H]1C(=S)N(C)C |  |
